# Residues, ends and D or L forms follow the SMILES beside them.
# Key:
# [1] = Long term (one year) stability study of H2S and thiols in human plasma samples; conditions: n = 3
# Description: (§1) Long-term stability of H2S and thiols in plasma samples was determined by “accelerated” stability. Samples were incubated in gas tight vials at 60° C. Each day, for five days (and after 1 year), an aliquot was cooled on ice, derivatized, and then analyzed by mass spectrometry. Stability was reported as the mean of the daily stability assay calculated across the five days. The long-term stability was calculated using the following formula: % Stability=(Ct/C0)×100; where C0 is the initial concentration of thiols and Ct is the concentration after each day of incubation. To determine whether the analyte was stable following derivatization, samples from 3 QC levels were kept at auto-sampler temperature and tested for five days. Stability was reported as the mean of the daily stability results for five days using the following formula: % Stability=(Ct/C0)×100; where C0 is the initial concentration of thiols and Ct is the concentration after each day of incubation.
# Stability The stability of H2S and thiols in samples was determined through an accelerated stability study of pooled serum samples (Quality Control (QC) samples at 3 concentration levels) analyzed in triplicates at 60° C. for 5 days and compared with fresh matrix that was immediately processed. […] Extract stability was also tested by reanalyzing QC extracts after ≥3 days at 10° C. (auto-sampler temperature) and quantifying against a freshly analyzed sample.
# [2] = after 5 freeze-thaw cycles, serum
# Description: Stability of samples containing H2S and thiols For stability analysis a fresh serum sample was divided into 5 equal aliquots and frozen at −80° C. The aliquots were thawed and analyzed 24 hours later. This process was repeated five times. Percent recovery (stability) was calculated with the following formula: % Stability=100×Ct/C0; where C0 is the initial concentration (μM) of total H2S/thiols in the fresh serum sample and Ct is the concentration after each freeze-thaw cycle. The concentration mean from the 5 freeze-thaw cycles was calculated along with the standard deviation for each compound.
# [3] = pooled serum QC samples, 60° C., 5 days, vs fresh matrix
# Description: as §1
# Stability The stability of H2S and thiols in samples was determined through an accelerated stability study of pooled serum samples (Quality Control (QC) samples at 3 concentration levels) analyzed in triplicates at 60° C. for 5 days and compared with fresh matrix that was immediately processed. […] (auto-sampler temperature) and quantifying against a freshly analyzed sample.
# [4] = Storage stability of synthesized isotope labelled internal standard [^34S]Na2S and stock master solutions at −80° C.; conditions: Storage at −80° C.
# Description: The internal standard stock solution was prepared by weighing anhydrous [^34S]Na2S (in glovebox under nitrogen atmosphere) and dissolving it in ammonium bicarbonate buffer (pH 10).
# IS working solutions were diluted 10-fold immediately before use.
# The recovery of IS for H2S and other monitored thiols was examined in human plasma by comparing analyte peak areas in pooled human serum versus vehicle.
Structure (SMILES),"Stability (%) = 100 × Ct/C0 ([1]; QC1, one year storage)","Stability (%) = 100 × Ct/C0 ([1]; QC2, one year storage)","Stability (%) = 100 × Ct/C0 ([1]; QC3, one year storage)",also measured
N[C@@H](CS)C(=O)O [Cysteine],96.9 ± 6.0%,96.6 ± 3.2%,100.5 ± 1.1%,–
N[C@@H](CS)C(=O)NCC(=O)O [Cysteinylglycine],91.9 ± 6.5%,99.0 ± 3.5%,94.4 ± 4.9%,–
N[C@@H](CCC(=O)O)C(=O)N[C@@H](CS)C(=O)O [Glutamylcysteine] (H-Glu-Cys-OH),95.6 ± 1.3%,96.2 ± 3.5%,94.3 ± 6.9%,–
N[C@@H](CCC(=O)N[C@@H](CS)C(=O)NCC(=O)O)C(=O)O [Glutathione],82.1 ± 4.9%,95.8 ± 5.5%,99.0 ± 6.1%,–
"S [H2S, Hydrogen sulfide]",98.4 ±2.2%,97.4 ± 4.3%,99.0 ± 3.9%,Freeze-thaw stability [2]: 98.6%; Sample stability (accelerated) [3]: 94.4%
N[C@@H](CCS)C(=O)O [Homocysteine],90.3 ± 5.6%,101.3 ± 5.3%,108.2 ± 6.9%,–
"[Na+].[Na+].[S-2] [[^34S]Na2S, ^34S isotope-labeled sodium sulfide]",–,–,–,"% of peak area, storage stability ([4]; 1 Week): 100.0 ± 9.7%; % of peak area, storage stability ([4]; 2 Week): 101.3 ± 8.5%; % of peak area, storage stability ([4]; 3 Week): 97.3 ± 14.3%; % of peak area, storage stability ([4]; 4 Week): 101.1 ± 8.1%; % of peak area, storage stability ([4]; 5 Week): 96.1 ± 4.5%; % of peak area, storage stability ([4]; 6 Week): 101.1 ± 8.1%; % of peak area, storage stability ([4]; 7 Week): 103.7 ± 12.3%; % of peak area, storage stability ([4]; 8 Week): 98.8 ± 19.9%"
